Consider nine compounds from ChEMBL document CHEMBL1201862, “PubChem BioAssay data set” (2004).

What all share (experiment): DTP human tumour cell line panel, 48 h
The test system of test [1] is 786-0.
For test [2], the system named is CAKI-1.
Test [3] has as its system CCRF-CEM.
Test [4] concerns HCT-116.
The test system of test [5] is HCT-15.
The test system of test [6] is M14.
The subject of test [7] is MDA-MB-435.
The subject of test [8] is MDA-N.
Test [9] deals with Malme-3M.
The subject of test [10] is OVCAR-4.
Test [11] relates to SF-268.
Test [12] relates to SK-MEL-2.
The test system of test [13] is SNB-19.
Test [14] concerns T47D.
The test system of test [15] is UACC-257.
In test [16] the test system is UACC-62.

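Interpolation was linear, between the two tested concentrations surrounding the appropriate level; five concentrations were tested over 48 hours in 96-well plates. At the GI50, growth is halved.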 Active and inactive are the calls of the source. Rule as the data show it: active = GI50 up to about 1.1 µM and inactive = higher.

As for `N#CC(C#N)=C1SC(=N\c2ccccc2)/C(=N/c2ccccc2)N1c1ccccc1`, the GI50 is 14.8 µM (inactive) in test [1]; 11.8 µM (inactive) in [2]; 2.09 µM (inactive) in [3]; 14.4 µM (inactive) in test [4]; 2.03 µM in test [5]; 25.3 µM (inactive) in [6]. In addition, the GI50 was 10.6 µM (inactive) in [7]; 12.4 µM (inactive) in [8]; 22.2 µM (inactive) in test [9]; 13.2 µM (inactive) in test [10]; 19.3 µM (inactive) in [11]; 5.19 µM (inactive) in [12]. Moreover, the GI50 is 40.2 µM (inactive) in [13], 5.38 µM (inactive) in test [14], 15.7 µM (inactive) in [15] and 5.79 µM (inactive) in test [16].
Regarding `CCC1(CC)C(=O)NN(C(=O)c2ccccc2)C1=O`, the GI50 was > 100 µM (inactive) in test [1]; > 100 µM (inactive) in test [2]; 95.7 µM (inactive) in test [3]; > 100 µM (inactive) in test [4]; over 100 µM in [5]; > 100 µM (inactive) in test [6]. Moreover, the GI50 in test [7], in test [8], in test [9], in [10], in [11] and in [12] was > 100 µM (inactive) each time. For the same compound, the GI50 in [13], in test [14], in test [15] and in [16] was > 100 µM (inactive) each time.
Regarding `Cc1cc2c(c(C(=O)NCC(=O)O)c1)Oc1c(cc(C)cc1C(=O)NCC(=O)O)S2`, the GI50 is > 100 µM (inactive) in test [1]; > 100 µM (inactive) in test [2]; > 100 µM (inactive) in test [3]; > 100 µM (inactive) in [4]; over 100 µM in [5]; > 100 µM (inactive) in test [6]. For the same compound, the GI50 in test [7], in [8], in test [9], in test [10], in test [11] and in [12] was > 100 µM (inactive) in each case. For the same compound, the GI50 in test [13], in test [14], in test [15] and in test [16] was > 100 µM (inactive) throughout.
As to `Cc1ccc2ccc(O)cc2c1`, the GI50 in [1] was 76.2 µM (inactive); in [2], 38.1 µM (inactive); in test [3] it was 23.9 µM (inactive); in [4] it was 68.9 µM (inactive); in test [5], 35.6 µM; in test [6], 46.5 µM (inactive). Moreover, the GI50 was 19 µM (inactive) in test [7]; 20.1 µM (inactive) in test [8]; 48.2 µM (inactive) in test [9]; 20.9 µM (inactive) in [10]; 31.8 µM (inactive) in test [11]; 38.1 µM (inactive) in test [12]. For the same compound, the GI50 in test [13] is > 100 µM (inactive); in test [14], 35.3 µM (inactive); in [15] it was 64.3 µM (inactive); in test [16] it was 43.6 µM (inactive).
Turning to `Cc1cccc2nc3cccc(C(=O)NCCC[N+](C)(CCCNC(=O)c4cccc5nc6cccc(C)c6nc45)Cc4c([N+](=O)[O-])ncn4C)c3nc12`, the GI50 in [1] was 4.07 µM (inactive); in test [2], 0.659 µM (active); in [3], 47 µM (inactive); in test [4], 1.4 µM (inactive); in test [5], 0.82 µM; in test [6], 9.68 µM (inactive). Further, the GI50 is 5.13 µM (inactive) in [7]; 0.293 µM (active) in test [8]; 3.05 µM (inactive) in [9]; 29 µM (inactive) in test [10]; 2.43 µM (inactive) in test [11]; 6.95 µM (inactive) in test [12]. Further, the GI50 was > 1100 µM (inactive) in test [13], 21.9 µM (inactive) in [14], 5.22 µM (inactive) in test [15] and 0.853 µM (active) in test [16].
For the compound `O=C1Cc2c([nH]c3ccc(C(=O)O)cc23)-c2ccccc2N1`, the GI50 was > 100 µM (inactive) in test [1]; > 100 µM (inactive) in [2]; > 100 µM (inactive) in test [3]; > 100 µM (inactive) in test [4]; over 100 µM in [5]; > 100 µM (inactive) in test [6]. Besides, the GI50 in [7], in test [8], in [9], in test [10], in test [11] and in test [12] was > 100 µM (inactive) throughout. Moreover, the GI50 in [13], in test [14], in [15] and in test [16] was > 100 µM (inactive) throughout.
On to `CCN(CC)C(=S)/N=C(\SC(=S)N(CC)CC)c1ccccc1`, for which the GI50 in test [1] was > 65 µM (inactive); in test [2], 26.9 µM (inactive); in test [3], 0.787 µM (active); in [4], 14.6 µM (inactive); in [5] it was 27.7 µM; in test [6], 37.5 µM (inactive). For the same compound, the GI50 in test [7] was > 59 µM (inactive); in test [8], 15.7 µM (inactive); in [9], 22.4 µM (inactive); in test [10] it was 27.3 µM (inactive); in test [11], 41.6 µM (inactive); in [12], 30.7 µM (inactive). Moreover, the GI50 in test [13] is > 94.8 µM (inactive); in [14] it was 25.2 µM (inactive); in [15], 45.7 µM (inactive); in test [16] it was 39.6 µM (inactive).
In the case of `N#Cc1c(-c2ccc(Cl)cc2Cl)nc2[nH]nc(S)n2c1=O`, the GI50 was > 100 µM (inactive) in test [1]; > 100 µM (inactive) in test [2]; > 100 µM (inactive) in test [3]; > 100 µM (inactive) in [4]; over 100 µM in test [5]; > 100 µM (inactive) in [6]. The GI50 in test [7], in test [8], in test [9], in test [10], in test [11] and in [12] was > 100 µM (inactive) each time. Besides, the GI50 in test [13], in test [14], in test [15] and in [16] was > 100 µM (inactive) in each case.
With `O=c1[nH]nc(Cc2ccccc2)n1/N=C/c1cccs1`, the GI50 is > 100 µM (inactive) in test [1]; > 100 µM (inactive) in [2]; > 100 µM (inactive) in [3]; > 100 µM (inactive) in test [4]; over 100 µM in [5]; > 100 µM (inactive) in [6]. In addition, the GI50 in test [7], in test [8], in [9], in test [10], in [11] and in test [12] was > 100 µM (inactive) each time. Moreover, the GI50 in test [13] is > 100 µM (inactive); in test [14], > 100 µM (inactive); in test [15] it was > 100 µM (inactive); in test [16] it was 36 µM (inactive).

Broadly, the GI50 is the concentration at which growth is held to half of that of the control.
